Assay type in all cases: cell-based
Assay [1] has as its system HER3-ss+4aa/Gaussia Luciferase. In words: Dox-Induced Her3-ss-Gluc Assay. The note with it: 24 hr doxycycline induction, 293FRT/TO cells, Gaussia luciferase signal; read-out: 24 hr Dox Inducible Her3(ss + 4)Gluc 293FRT/TO: Mean IC50. The protocol: (§1) Transfected cells were selected for resistance to the selectable markers Hygromycin and Blasticidin to create a stable cell line that contained the HER3-ss+4aa/Gaussia Luciferase cDNA insert whose expression was regulated under the T-REx™ system. The day before assay, cells were trypsinized and plated in 384-well tissue culture plates. The next day, compound dilutions in DMSO/media containing doxycycline were added to the wells and incubated at 37° C., 5% CO2.
(§2) For chemical structures that include one or more stereoisomers, but are illustrated without indicating stereochemistry, the assay data refers to a mixture of stereoisomers.

For assay [2], the system named is human multiple myeloma cell line NCI-H929. Put plainly: H929 Cell Viability Assay. As to conditions: 48 hr, NCI-H929 cells, Celltiter-Glo, read-out: 48 hr H929 Viability Celltiter-Glo: Mean EC50. As to the method: Plates were incubated at 37° C., 5% CO2 for 48 hours. After 48 hours, Celltiter-Glo® (Promega) was added to each well and luciferase signal was quantified using Tecan Infinite M1000 Pro for cell viability determination.
as §2

The subject of assay [3] is IL-2-FL/Gaussia Luciferase. Put plainly: Dox Induced IL2-FL-Gluc Assay. As to conditions: 24 hr doxycycline induction, 293FRT/TO cells, Gaussia luciferase signal; read-out: 24 hr Dox Inducible IL2FLGIuc 293FRT/TO: Mean IC50. As to the method:
as §1, with “IL-2-FL/Gaussia” for “HER3-ss+4aa/Gaussia”, “T-RExTM” for “T-REx™”, “CO2. […] For chemical structures that include one or more stereoisomers, but are illustrated without indicating stereochemistry, the assay data refers to a mixture of stereoisomers.” for “CO2.”

Assay [4] has as its system human multiple myeloma cell line U266B1. In words: U266 Cell Viability Assay. The note with it: U-266, 48 hr, U266B1 cells, Celltiter-Glo, read-out: 48 hr U266 Viability Celltiter-Glo: Mean EC50. The protocol:
Cells were plated in 384-well tissue culture plates and treated with compound dilutions in DMSO/media. Plates were incubated at 37° C., 5% CO2 for 48 hours. After 48 hours, Celltiter-Glo® (Promega) was added to each well and luciferase signal was quantified using Tecan Infinite M1000 Pro for cell viability determination.
as §2

Assay [5] has as its system PD1-ss+10aa/Gaussia Luciferase. Put plainly: Dox-Induced PD1-ss-Gluc Assay. The note with it: 24 hr doxycycline induction, 293FRT/TO cells, Gaussia luciferase signal; read-out: 24 hr Dox Inducible PD1ssGluc 293FRT/TO: Mean IC50. As to the method: Transfected cells were selected for resistance to the selectable markers Hygromycin and Blasticidin to create a stable cell line that contained the PD1-ss+10aa/Gaussia Luciferase cDNA insert whose expression was regulated under the T-REx™ system. The day before assay, cells were trypsinized and plated in 384-well tissue culture plates. The next day, compound dilutions in DMSO/media containing doxycycline were added to the wells and incubated at 37° C., 5% CO2.
as §2

Assay [6] deals with TNFα-FL/Gaussia Luciferase. Put plainly: Dox Induced TNFα-FL-Gluc Assay. The note with it: 24 hr doxycycline induction, 293FRT/TO cells, Gaussia luciferase signal; read-out: 24 hr Dox Inducible TNFaFLGluc 293FRT/TO: Mean IC50. As to the method: as §1, with “TNFα-FL/Gaussia” for “HER3-ss+4aa/Gaussia”, “T-RExTM” for “T-REx™”, “CO2. […] For chemical structures that include one or more stereoisomers, but are illustrated without indicating stereochemistry, the assay data refers to a mixture of stereoisomers.” for “CO2.”

Some results are limits rather than exact numbers.

Take `CC(C)(OC1CCCCC1)c1csc(NC(=O)c2cccn2Cc2ccncc2)n1` [Compound A10, N-(4-(2-(cyclohexyloxy)propan-2-yl)thiazol-2-yl)-1-(pyridin-4-ylmethyl)-1H-pyrrole-2-carboxamide]: the IC50 was found to be 195 nM in assay [1], 158 nM in assay [3], 105 nM in assay [5] and 1580 nM in assay [6]. Moreover, the half-maximal effective concentration (EC50) in assay [2] was 15600 nM; in assay [4], > 25000 nM.

With `CC(C)OC(C)(C)c1csc(NC(=O)c2cccn2CCCc2ccncc2)n1` [Compound A11, N-(4-(2-isopropoxypropan-2-yl)thiazol-2-yl)-1-(3-(pyridin-4-yl)propyl)-1H-pyrrole-2-carboxamide], the IC50 in assay [1] was determined as 128 nM; in assay [3], 61 nM; in assay [5] it was 115 nM; in assay [6], 2390 nM. Moreover, the EC50 in assay [2] was 8690 nM; in assay [4] it was > 25000 nM.

For `O=C(Nc1nc(/C=C\c2ccccc2)cs1)c1cccn1Cc1ccncc1` [Compound A12, 1-(pyridin-4-ylmethyl)-N-(4-styrylthiazol-2-yl)-1H-pyrrole-2-carboxamide], the IC50 amounted to 338 nM in assay [1], 566 nM in assay [3], 139 nM in assay [5] and 1760 nM in assay [6]. For the same molecule, the EC50 in assay [2] was 18600 nM; in assay [4] it was > 25000 nM.

`O=C(Nc1nc(CCc2ccccc2)cs1)c1cccn1Cc1ccncc1` [Compound A13, N-(4-phenethylthiazol-2-yl)-1-(pyridin-4-ylmethyl)-1H-pyrrole-2-carboxamide]: the IC50 in assay [1] was 382 nM; in assay [3], 648 nM; in assay [5], 148 nM; in assay [6], 3300 nM. The 50% effective concentration (EC50) in assay [2] was 18800 nM; in assay [4], > 25000 nM.

As to `O=C(Nc1nc(/C=C/c2ccccc2)cs1)c1cccn1Cc1ccncc1` [Compound A14, 1-(pyridin-4-ylmethyl)-N-(4-styrylthiazol-2-yl)-1H-pyrrole-2-carboxamide], the IC50 in assay [1] stood at 568 nM; in assay [3], 1050 nM; in assay [5] it was 153 nM; in assay [6], 5110 nM. The EC50 in assay [2] and in assay [4] was > 25000 nM throughout.

In the case of `CC(C)(OCC(F)(F)F)c1csc(NC(=O)c2cccn2Cc2ccncc2)n1` [Compound A15, 1-(pyridin-4-ylmethyl)-N-(4-(2-(2,2,2-trifluoroethoxy)propan-2-yl)thiazol-2-yl)-1H-pyrrole-2-carboxamide], the IC50 came out at 318 nM in assay [1], 110 nM in assay [3], 169 nM in assay [5] and 5430 nM in assay [6]. The concentration for a half-maximal effect (EC50) in assay [2] was 16600 nM; in assay [4], > 25000 nM.

`CC(C)OC(C)(C)c1csc(NC(=O)c2cccn2Cc2ccncc2)n1` [Compound A16, N-(4-(2-isopropoxypropan-2-yl)thiazol-2-yl)-1-(pyridin-4-ylmethyl)-1H-pyrrole-2-carboxamide]: the IC50 in assay [1] was 377 nM; in assay [3], 266 nM; in assay [5], 185 nM; in assay [6], 5010 nM. The EC50 is > 23900 nM in assay [2] and > 25000 nM in assay [4].

Consider `O=C(Nc1nc(Cc2ccccc2)cs1)c1cccn1Cc1ccncc1` [Compound A17, N-(4-benzylthiazol-2-yl)-1-(pyridin-4-ylmethyl)-1H-pyrrole-2-carboxamide], for which the IC50 in assay [1] was determined as 560 nM; in assay [3] it was 804 nM; in assay [5], 191 nM; in assay [6] it was 2240 nM. The half-maximal effective concentration (EC50) in assay [2] is 20800 nM; in assay [4], > 25000 nM.

Consider `C[C@@H](OC(C)(C)c1csc(NC(=O)c2cccn2Cc2ccncc2)n1)c1ccccc1` [Compound A18, (R)-N-(4-(2-(1-phenylethoxy)propan-2-yl)thiazol-2-yl)-1-(pyridin-4-ylmethyl)-1H-pyrrole-2-carboxamide], for which the IC50 was found to be 461 nM in assay [1], 718 nM in assay [3], 226 nM in assay [5] and 1350 nM in assay [6]. The EC50 is 15100 nM in assay [2] and > 25000 nM in assay [4].

As for `O=C(Nc1nc(C(F)(F)F)cs1)c1cccn1Cc1ccncc1` [Compound A19, 1-(pyridin-4-ylmethyl)-N-(4-(trifluoromethyl)thiazol-2-yl)-1H-pyrrole-2-carboxamide], the IC50 turned out to be 492 nM in assay [1], 529 nM in assay [3], 246 nM in assay [5] and 8540 nM in assay [6]. Moreover, the concentration giving a half-maximal response (EC50) in assay [2] and in assay [4] was > 25000 nM in each case.

With `Cc1sc(NC(=O)c2cccn2Cc2ccncc2)nc1C(C)OC(C)C` (stereo not drawn) [Compound A20, N-(4-(1-isopropoxyethyl)-5-methylthiazol-2-yl)-1-(pyridin-4-ylmethyl)-1H-pyrrole-2-carboxamide], the IC50 in assay [1] amounted to 510 nM; in assay [3], 351 nM; in assay [5], 248 nM; in assay [6] it was 7170 nM. Besides, the EC50 in assay [2] and in assay [4] was > 25000 nM throughout.

In the case of `CC(c1ccccc1)c1csc(NC(=O)c2cccn2Cc2ccncc2)n1` (stereo not drawn) [Compound A21], the IC50 worked out at 590 nM in assay [1], 502 nM in assay [3], 259 nM in assay [5] and 3680 nM in assay [6]. Further, the EC50 in assay [2] and in assay [4] was > 25000 nM each time.

`CC1(C)CCc2sc(NC(=O)c3cccn3Cc3ccncc3)nc21` [Compound A22, N-(4,4-dimethyl-5,6-dihydro-4H-cyclopenta[d]thiazol-2-yl)-1-(pyridin-4-ylmethyl)-1H-pyrrole-2-carboxamide]: the IC50 is 503 nM in assay [1], 460 nM in assay [3], 271 nM in assay [5] and 8830 nM in assay [6]. Also, the EC50 in assay [2] and in assay [4] was > 25000 nM each time.

On to `CCC(C)c1csc(NC(=O)c2cccn2Cc2ccncc2)n1` (stereo not drawn) [Compound A23], for which the IC50 turned out to be 447 nM in assay [1], 429 nM in assay [3], 290 nM in assay [5] and 5470 nM in assay [6]. Besides, the concentration giving a half-maximal response (EC50) in assay [2] and in assay [4] was > 25000 nM throughout.

`Cc1cnccc1Cn1cccc1C(=O)Nc1nc(C(C)(C)OC(C)C)cs1` [Compound A24, N-(4-(2-isopropoxypropan-2-yl)thiazol-2-yl)-1-((3-methylpyridin-4-yl)methyl)-1H-pyrrole-2-carboxamide]: the IC50 in assay [1] was determined as 619 nM; in assay [3], 477 nM; in assay [5] it was 303 nM; in assay [6], 11700 nM. For the same molecule, the concentration for a half-maximal effect (EC50) in assay [2] and in assay [4] was > 25000 nM each time.

Turning to `CC(C)OC(C)(C)c1csc(NC(=O)c2cccn2Cc2ccncc2F)n1` [Compound A25, 1-((3-fluoropyridin-4-yl)methyl)-N-(4-(2-isopropoxypropan-2-yl)thiazol-2-yl)-1H-pyrrole-2-carboxamide], the IC50 in assay [1] is 692 nM; in assay [3], 490 nM; in assay [5], 314 nM; in assay [6] it was 9980 nM. Moreover, the EC50 in assay [2] and in assay [4] was > 25000 nM each time.

`CC(C)c1csc(NC(=O)c2cccn2Cc2ccncc2)n1` [Compound A26, N-(4-isopropylthiazol-2-yl)-1-(pyridin-4-ylmethyl)-1H-pyrrole-2-carboxamide]: the IC50 in assay [1] is 817 nM; in assay [3], 759 nM; in assay [5], 319 nM; in assay [6], 10700 nM. In addition, the EC50 in assay [2] and in assay [4] was > 25000 nM throughout.
